In ChEMBL document CHEMBL5380862, “Unsymmetrical Phosphodiesters as GPR84 Antagonists with High Blood Exposure for the Treatment of Lung Inflammation” (J Med Chem, 2023) one finds AUC(0-t), concentration and inhibition data, which are given here for one compound.

Data set [1] in a line: AUClast in ICR mouse at 2 mg/kg, iv administered as single dose. The format is ADME, organism-based. More on the design: dose 2 mg/kg, route iv. Conditions: in vivo.
Data set [2] is described as follows: Drug distribution in mouse liver at 5 mg/kg, po administered as single dose and measured after 0.5 hrs by LC-MS analysis. The format is ADME, organism-based. Particulars: read-out: Drug uptake.
Data set [3] is described as follows: Drug distribution in mouse liver at 5 mg/kg, po administered as single dose and measured after 2 hrs by LC-MS analysis. Particulars: read-out: Drug uptake. The data set is classed as ADME, organism-based.
Another data set deals with Neutrophil. Nature of the data set: Inhibition of cell migration in 6-n-[…]-stimulated mouse CD11bpositive Ly6Gpositive neutrophils at 0.01 to 1 uM incubated for 1.5 hrs by flow cytometric analysis. The data set is classed as functional, cell-based. Conditions: dose 0.01-1 µM. A general note: A flow cytometer gives signals particle by particle.
Data set [4] concerns the target G-protein coupled receptor 84 (Mus musculus) (UniProt Q8CIM5). Nature of the data set: Antagonist activity at mouse GPR84 expressed in HEK293 cells co-expressing Galpha16 assessed as inhibition of 6-OAU induced calcium response incubated for 10 mins by calcium mobilization assay. The format is functional, cell-based. Conditions: filed as antagonist. For orientation: Calcium flux is commonly read through the fluorescence of an indicator in the cells.

Data set [5] deals with T1, Free fatty acid receptor 3 (Homo sapiens) (UniProt O14843).
T1 sequence (whole entry): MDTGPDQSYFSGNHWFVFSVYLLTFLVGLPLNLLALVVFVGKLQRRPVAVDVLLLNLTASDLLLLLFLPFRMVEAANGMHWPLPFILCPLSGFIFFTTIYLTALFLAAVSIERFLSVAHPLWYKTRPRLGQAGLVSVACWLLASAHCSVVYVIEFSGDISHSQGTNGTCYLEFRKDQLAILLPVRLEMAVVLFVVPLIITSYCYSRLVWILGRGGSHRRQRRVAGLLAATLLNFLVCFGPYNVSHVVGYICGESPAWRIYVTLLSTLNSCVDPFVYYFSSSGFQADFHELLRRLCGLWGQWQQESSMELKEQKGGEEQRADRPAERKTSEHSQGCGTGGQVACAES
The data set is described as follows: Antagonist activity at GPR41 (unknown origin) expressed in HEK293 cells co-expressing Galpha16 assessed as inhibition of sodium butyrate induced calcium response upto 100 uM incubated for 10 mins by calcium mobilization assay. The data set is classed as functional, cell-based.

Data set [6] concerns the target T2, Glucose-dependent insulinotropic receptor (Homo sapiens) (UniProt Q8TDV5).
T2 sequence (whole entry): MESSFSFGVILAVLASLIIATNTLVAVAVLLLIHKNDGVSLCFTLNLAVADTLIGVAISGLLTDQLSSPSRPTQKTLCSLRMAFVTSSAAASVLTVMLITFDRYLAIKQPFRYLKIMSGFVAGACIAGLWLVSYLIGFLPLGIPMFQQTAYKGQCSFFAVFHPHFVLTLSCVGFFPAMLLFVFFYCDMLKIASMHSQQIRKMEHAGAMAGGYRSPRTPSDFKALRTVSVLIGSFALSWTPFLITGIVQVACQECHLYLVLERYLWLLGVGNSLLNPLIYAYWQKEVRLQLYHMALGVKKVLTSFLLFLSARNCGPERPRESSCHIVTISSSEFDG
Nature of the data set: Antagonist activity at GPR119 (unknown origin) expressed in HEK293 cells assessed as inhibition of AR231453 induced […] upto 100 uM pre-incubated for 10 mins followed by AR231453 addition and measured after 15 mins by cAMP detection assay. Particulars: time 25.0 min. The format is functional, cell-based.

Data set [7] concerns the target Kappa-type opioid receptor (Homo sapiens) (UniProt P41145). Nature of the data set: Antagonist activity at KOR (unknown origin) expressed in HEK293 cells co-expressing Galpha16 assessed as inhibition of U50488 induced calcium response upto 100 uM incubated for 10 mins by calcium mobilization assay. The data set is classed as functional, cell-based.

Activity calls are given as the source filed them. The rule behind the calls is not given here.

G-protein coupled receptor 84 (Mus musculus), sequence (Q8CIM5 whole entry): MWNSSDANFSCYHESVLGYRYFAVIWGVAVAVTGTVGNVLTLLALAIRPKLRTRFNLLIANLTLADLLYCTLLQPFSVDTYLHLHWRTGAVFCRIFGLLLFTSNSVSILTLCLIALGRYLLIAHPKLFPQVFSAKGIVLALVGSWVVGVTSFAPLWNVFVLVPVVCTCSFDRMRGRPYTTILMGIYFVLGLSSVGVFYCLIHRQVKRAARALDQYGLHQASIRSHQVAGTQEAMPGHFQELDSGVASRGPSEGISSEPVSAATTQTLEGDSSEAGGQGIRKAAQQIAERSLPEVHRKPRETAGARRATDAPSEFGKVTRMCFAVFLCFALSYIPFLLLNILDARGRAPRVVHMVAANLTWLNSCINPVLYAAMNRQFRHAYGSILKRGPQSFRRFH
Kappa-type opioid receptor (Homo sapiens), sequence (P41145 whole entry): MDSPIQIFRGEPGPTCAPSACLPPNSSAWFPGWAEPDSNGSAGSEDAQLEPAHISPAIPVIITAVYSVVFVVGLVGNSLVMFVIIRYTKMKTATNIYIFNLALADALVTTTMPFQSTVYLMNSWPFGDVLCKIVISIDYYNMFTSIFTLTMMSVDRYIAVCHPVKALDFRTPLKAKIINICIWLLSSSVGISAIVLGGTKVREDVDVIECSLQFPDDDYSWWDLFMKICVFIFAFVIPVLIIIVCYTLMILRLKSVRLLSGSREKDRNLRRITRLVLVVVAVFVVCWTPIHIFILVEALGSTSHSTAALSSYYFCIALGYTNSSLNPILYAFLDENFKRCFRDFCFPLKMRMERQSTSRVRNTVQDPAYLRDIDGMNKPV

For orientation: AUC(0-t) means exposure summed from dosing to a finite time, without extrapolation to infinity. A lower AUC(0-t) goes with low exposure. In data set [1], `O=P([O-])(OC1=Cc2c(Cl)cccc2Sc2ccccc21)OC1=Cc2c(Cl)cccc2Sc2ccccc21.[Na+]` registered an AUC(0-t) of 1680 ng·h/mL. In addition, in data set [2], the concentration at 0.5 h came to 297 ng/g. Further, the concentration at 2 h in data set [3] amounted to 1960 ng/g. For the same compound, the inhibition result (in the data set on Neutrophil; in data set [4]) was “Active” each time. For the same compound, the inhibition entry in data set [5], in data set [6] and in data set [7] was “inactive” each time.
